Results on two compounds are retold here after patent US7615628B2, “Imidazopyridine derivatives” (Riken, priority 2005, dated 2009).

The subject of assay [1] is cultured human fibrosarcoma HT-1080 cells. Description: MTT assay, cell growth inhibitory activity on cancer cells. It counts as cell-based. To be noted: for higher growth inhibitory activity on cancer cells than on normal cells: HT-1080 cancer cells versus WI-38 normal cells, from IC50 values; for IC50: Homo sapiens, MTT assay, 72 hours incubation at 37° C., HT-1080 cells, value ± standard deviation. As to the method:
(§1) MTT assay was performed to examine two test compounds, i.e., 7-(2-thienyl)-3-(2-deoxy-1-β-D-ribofuranosyl)-3H-imidazo[4,5-b]pyridine (herein referred to as Compound IA) and 5-amino-7-(2-thienyl)-3-(2-deoxy-1-β-D-ribofuranosyl)-3H-imidazo[4,5-b]pyridine (herein referred to as Compound IB) for their cell growth inhibitory effect on cultured human fibrosarcoma HT-1080 cells and human fetal lung fibroblast (normal diploid fibroblast) WI-38 cells. These cells (1×10^4 cells/ml) were seeded in 96-well microplates (IWAKI) at 90 μl/well. After culturing at 37° C. for 3 to 4 hours, test compound solutions (10 μl each), which had been dissolved in PBS-5% DMSO and adjusted to various concentrations, were added and incubated at 37° C. for 72 hours. To the wells containing these solutions, a PBS solution of MTT (5 mg/ml) was added in 25 μl volumes and incubated at 37° C. for an additional 2 hours, followed by addition of a 50% DMF-20% SDS solution in 100 μl to each well. After incubation was continued at 37° C. for 16 hours, the absorbance at 570 nm was measured using a microplate reader to calculate % inhibition according to the following equation. % Inhibition=100×[1−(Abssample−Absbackground)/(Absnegative control−Absbackground)] [Expression 2]
(§2) Abssample: Absorbance in the presence of test compound
(§3) Absbackground: Absorbance in the absence of cells and test compound
Absnegative control: Absorbance in the absence of test compound
The concentration (IC50 μM) required for each test compound to cause 50% inhibition of cell growth was calculated from a concentration-inhibition curve. The IC50 values are shown in Table 1 below, along with their standard deviation.
(In general: Tetrazolium dyes change colour on reduction, which living cells bring about.)

Assay [2] relates to human fetal lung fibroblast (normal diploid fibroblast) WI-38 cells. Description: MTT assay, cell growth inhibitory activity on normal cells. It counts as cell-based. To be noted: 72 hours incubation at 37° C., WI-38 normal cells, value ± standard deviation. How it is done: as §1, with “To the wells containing these solutions, a PBS solution of MTT (5 mg/ml) was added in 25 μl volumes and incubated at 37° C. for an additional 2 hours, followed by addition of a 50% DMF-20% SDS solution in 100 μl to each well.” left out, “[Expression 2]” left out
as §2, §3
Absnegative control: Absorbance in the absence of test compound […]

Take `OC[C@H]1O[C@@H](n2cnc3c(-c4cccs4)ccnc32)C[C@H]1O` [Compound IA, 7-(2-thienyl)-3-(2-deoxy-1-β-D-ribofuranosyl)-3H-imidazo[4,5-b]pyridine]: in assay [1], the “higher growth inhibitory activity on cancer cells than on normal cells” value is “about 5 fold”. The IC50 worked out at 62 µM in assay [1] and 290 ± 130 µM in assay [2].

For the compound `Nc1cc(-c2cccs2)c2ncn([C@H]3C[C@@H](O)[C@@H](CO)O3)c2n1` [Compound IB, 5-amino-7-(2-thienyl)-3-(2-deoxy-1-β-D-ribofuranosyl)-3H-imidazo[4,5-b]pyridine], in assay [1], the “higher growth inhibitory activity on cancer cells than on normal cells” value is recorded as “about 10 fold” and the midpoint of inhibition, the IC50, lay at 34 µM. The midpoint of inhibition in assay [2], the IC50, lay at 330 ± 40 µM.

A word on the IC50: it is the midpoint of a concentration-inhibition curve. Low values mean greater potency, high ones weaker potency.
